Measured values published in patent US5430062A, “Stilbene derivatives as anticancer agents” (priority 1993, dated 1995).
Read-outs that look alike come from different tables or passages of the source.

Experiments:
[1] = tested on: TK-10 renal cancer; assay: Cytotoxicity, TK-10; format: cell-based; settings: Homo sapiens, read-out: Log10 GI50, TK-10 (converted)
Description: (§1) A total of 55 cell lines from the leukemia, non-small cell lung cancer, small cell lung cancer, colon cancer, CNS cancer, melanoma, ovarian cancer, and renal cancer panels were examined.

[2] = tested on: KM12 colon cancer; assay: Cytotoxicity, KM12; format: cell-based; settings: Homo sapiens, read-out: Log10 GI50, KM12 (converted)
Description: as §1

[3] = tested on: M19-MEL melanoma; assay: Cytotoxicity, M19-MEL; format: cell-based; settings: Homo sapiens, read-out: Log10 GI50, M19-MEL (converted)
Description: as §1

[4] = tested on: LOX IMVI melanoma; assay: Cytotoxicity, LOX IMVI; format: cell-based; settings: Homo sapiens, read-out: Log10 GI50, LOX IMVI (converted)
Description: as §1

[5] = tested on: HOP-62 non-small cell lung cancer; assay: Cytotoxicity, HOP-62; format: cell-based; settings: Homo sapiens, read-out: Log10 GI50, HOP-62 (converted)
Description: as §1

[6] = tested on: SF-268 CNS cancer; assay: Cytotoxicity, SF-268; format: cell-based; settings: Homo sapiens, SF-268, read-out: Log10 GI50, SF-268 (converted)
Description: as §1

[7] = tested on: HCT-116 colon cancer; assay: Cytotoxicity, HCT-116; format: cell-based; settings: Homo sapiens, read-out: Log10 GI50, HCT-116 (converted)
Description: as §1

[8] = tested on: DLD-1 colon cancer; assay: Cytotoxicity, DLD-1; format: cell-based; settings: Homo sapiens, read-out: Log10 GI50, DLD-1 (converted)
Description: as §1

[9] = tested on: tubulin; assay: Inhibition of tubulin polymerization (turbidimetry); format: biochemical, bovine; settings: Hydrochloride
[10] = tested on: XF498 CNS cancer; assay: Cytotoxicity, XF498; format: cell-based; settings: Homo sapiens, read-out: Log10 GI50, XF498 (converted)
Description: as §1

[11] = tested on: ACHN renal cancer; assay: Cytotoxicity, ACHN; format: cell-based
Description: as §1

[12] = tested on: HCT-15 colon cancer; assay: Cytotoxicity, HCT-15; format: cell-based; settings: Homo sapiens, read-out: Log10 GI50, HCT-15 (converted)
Description: as §1

[13] = tested on: A549/ATCC non-small cell lung cancer; assay: Cytotoxicity, A549/ATCC; format: cell-based; settings: Homo sapiens, read-out: Log10 GI50, A549/ATCC (converted)
Description: as §1

[14] = tested on: RPMI-8226 leukemia; assay: Cytotoxicity, RPMI-8226; format: cell-based; settings: Homo sapiens, read-out: Log10 GI50, RPMI-8226 (converted)
Description: as §1

[15] = tested on: IGROVI ovarian cancer; assay: Cytotoxicity, IGROVI; format: cell-based; settings: read-out: Log10 GI50, IGROVI (converted)
Description: as §1

[16] = tested on: SF-539 CNS cancer; assay: Cytotoxicity, SF-539; format: cell-based; settings: Homo sapiens, read-out: Log10 GI50, SF-539 (converted)
Description: as §1

[17] = tested on: SNB-75 CNS cancer; assay: Cytotoxicity, SNB-75; format: cell-based; settings: Homo sapiens, read-out: Log10 GI50, SNB-75 (converted)
Description: as §1

[18] = tested on: SW-620 colon cancer; assay: Cytotoxicity, SW-620; format: cell-based; settings: Homo sapiens, read-out: Log10 GI50, SW-620 (converted)
Description: as §1

[19] = tested on: UO-31 renal cancer; assay: Cytotoxicity, UO-31; format: cell-based; settings: Homo sapiens, read-out: Log10 GI50, UO-31 (converted)
Description: as §1

[20] = tested on: MALME-3M melanoma; assay: Cytotoxicity, MALME-3M; format: cell-based; settings: Homo sapiens, read-out: Log10 GI50, MALME-3M (converted)
Description: as §1

[21] = tested on: CAKI-1 renal cancer; assay: Cytotoxicity, CAKI-1; settings: read-out: cytotoxicity GI50, CAKI-1, 50% growth inhibition, average of two determinations, 8640 min, Hydrochloride
[22] = tested on: K-562 leukemia; assay: Cytotoxicity, K-562; format: cell-based
Description: as §1

[23] = tested on: RXF-393 renal cancer; assay: Cytotoxicity, RXF-393; format: cell-based; settings: Homo sapiens, read-out: Log10 GI50, RXF-393 (converted)
Description: as §1

[24] = tested on: SN12C renal cancer; assay: Cytotoxicity, SN12C; format: cell-based; settings: Homo sapiens, read-out: Log10 GI50, SN12C (converted)
Description: as §1

[25] = tested on: OVCAR-4 ovarian cancer; assay: Cytotoxicity, OVCAR-4; format: cell-based; settings: Homo sapiens, read-out: Log10 GI50, OVCAR-4 (converted)
Description: as §1

[26] = tested on: MOLT-4 leukemia; assay: Cytotoxicity, MOLT-4; format: cell-based; settings: Homo sapiens, read-out: Log10 GI50, MOLT-4 (converted)
Description: as §1

[27] = tested on: SK-MEL-5 melanoma; assay: Cytotoxicity, SK-MEL-5 (Table XI panel); format: cell-based; settings: Homo sapiens, read-out: Log10 GI50, SK-MEL-5 (converted)
Description: as §1

[28] = tested on: OVCAR-3 ovarian cancer; assay: Cytotoxicity, OVCAR-3; settings: read-out: cytotoxicity GI50, OVCAR-3, 50% growth inhibition, average of two determinations, 8640 min, Hydrochloride
[29] = tested on: HT29 colon cancer; assay: Cytotoxicity, HT29 (Table XI panel); format: cell-based; settings: Homo sapiens, HT-29; read-out: Log10 GI50, HT29 (converted)
Description: as §1

[30] = tested on: NCI-H322M non-small cell lung cancer; assay: Cytotoxicity, NCI-H322M; format: cell-based; settings: Homo sapiens, read-out: Log10 GI50, NCI-H322M (converted)
Description: as §1

[31] = tested on: OVCAR-5 ovarian cancer; assay: Cytotoxicity, OVCAR-5; format: cell-based; settings: Homo sapiens, read-out: Log10 GI50, OVCAR-5 (converted)
Description: as §1

[32] = tested on: U251 CNS cancer; assay: Cytotoxicity, U251; format: cell-based; settings: Homo sapiens, U-251; read-out: Log10 GI50, U251 (converted)
Description: as §1

[33] = tested on: A498 renal cancer; assay: Cytotoxicity, A498; format: cell-based; settings: Homo sapiens, read-out: Log10 GI50, A498 (converted)
Description: as §1

COc1cc(CNc2ccc(C)cc2)cc(OC)c1OC.Cl [110a, 4-Methyl-N-(3,4,5-trimethoxybenzyl)aniline Hydrochloride]
GI50 [1]: > 100 µM | GI50 [2]: 759 nM | GI50 [3]: 331 nM | GI50 [4]: 851 nM | GI50 [5]: 282 nM | GI50 [6]: 912 nM | GI50 [7]: 575 nM | GI50 [8]: 575 nM | IC50 ([9]; Table X, different glutamate preparation (1M monosodium glutamate and GTP), read-out: inhibn of tubulin polymn IC50 (±SD)): 3.5 µM | IC50 ([9]; benzylanilines, Table X series, read-out: tubulin polymerization IC50): 3.5 µM | GI50 [10]: 468 nM | GI50 ([11]; Homo sapiens, ACHN, read-out: Log10 GI50, ACHN (converted)): < 100 nM | Log10 GI50, ACHN ([11]; Hydrochloride): -7.01 | GI50 [12]: 245 nM | GI50 [13]: 513 nM | GI50 [14]: 437 nM | GI50 [15]: 708 nM | GI50 [16]: 316 nM | GI50 [17]: 389 nM | GI50 [18]: 110 nM | GI50 [19]: 832 nM | GI50 [20]: 468 nM | GI50 [21]: 162 nM | GI50 ([22]; Homo sapiens, K562, read-out: Log10 GI50, K-562 (converted)): < 100 nM | Log10 GI50, K-562 ([22]; Hydrochloride): -7.00 | GI50 [23]: 112 nM | GI50 [24]: 851 nM | GI50 [25]: 21.4 µM | GI50 [26]: 427 nM | GI50 [27]: 912 nM | GI50 [28]: 214 nM | GI50 [29]: 347 nM | GI50 [30]: 501 nM | GI50 [31]: 1350 nM | GI50 [32]: 331 nM | GI50 [33]: > 100 µM
